Test results taken from US20260284014A1, “3,5-DIAMINOTRIAZOLE DERIVATIVES AND USES THEREOF FOR TREATING OCULAR DISEASES” (CENTRE NATIONAL DE LA RECHERCHE SCIENTIFIQUE, priority 2023, published 2026).
pIC50: −log10 of the molar value. “Also recorded” adds a separate entry of the source.

Key:
[1] = tested on: ocular (retinal) neo-angiogenesis; experiment: Hypoxia-induced retinal neo-angiogenesis in zebrafish; type: in vivo; settings: hypoxia 5% oxygen 72 h, 0.25, 0.5, or 1 μM
Experimental: All animal experiments were approved by the Experimental Animal Ethical Committee. Transgenic zebrafish embryos (fli: EGFP, blood vessels marked in GFP) were raised at 28° C. under standard experimental conditions. Zebrafish embryos at the age of 24 hpf were incubated in aquarium water containing 0.2 mmol/L 1-phenyl-2-thio-urea (PTU, Sigma). At 48-hpf, zebrafish embryos were placed for 72 h in normoxia (Nx) or hypoxia 5% oxygen […], in the presence of treatment. Retinal neo-angiogenesis was analyzed by fluorescent confocal microscope and quantified by ImageJ.

ROS = ROS labeling by cytometry after H2O2; type: cell-based; settings: Homo sapiens, ARPE-19; for inhibition at 1 µM: 1 μM compound then 200 μM H2O2 for 2 h, read-out: C. ROS inhibition 1 μM - ARPE-19 cells; for inhibition at 5 µM: 5 μM compound then 200 μM H2O2 for 2 h, read-out: B. ROS inhibition 5 μM - ARPE-19 cells
Experimental: ARPE-19 cells were treated with MCK349 30 minutes then with 200 μM H2O2 for 2 h. 10 μM DCF-DA (2′,7′-Dichlorofluorescein diacetate) were added on cell media for 30 min. Cells were rinsed then detached (trypsin) and resuspended in PBS 0.5% BSA and 2 mM EDTA. The cells are analyzed by cytometry (ROS labeled with DCFDA-FITC).
(§1) All compounds were evaluated in different experiments. Results are represented as the mean of three independent experiments. A. ARPE-19 cells were treated with dose response of compound for 48 h. Values are reported as IC50 measured with the XTT assay. B and C. ARPE-19 cells were treated with 5 μM (B) or 1 μM (C) compound then with 200 μM H2O2 for 2 h. ROS were analyzed by cytometry. […] As illustrated in FIG. 1A. D. ARPE-19 cells were treated with 2.5 μM compound for 48 h and the level of CXCL1 mRNA was evaluated by qPCR. […] As illustrated in FIG. 1B. E. TIME cells were pre-treated with 2.5 μM compound for 1 h then stimulated with 100 ng/ml CXCL8 for 15 min p-ERK levels were analyzed by immunoblotting. HSP90 served as loading control. […] As illustrated in FIG. 1C.

ERK activation (p-ERK) = experiment: p-ERK immunoblotting after CXCL8 stimulation; type: cell-based; settings: 2.5 μM compound 1 h then 100 ng/ml CXCL8 for 15 min; read-out: E. p-ERK inhibition - TIME
Experimental: Cells were lysed in buffer containing 3% SDS, 10% glycerol and 0.825 mM Na2HPO4. 30 to 50 μg of proteins separated on 10% SDS-PAGE, transferred onto a PVDF membrane and then exposed to the appropriate antibodies. Proteins were visualized with the ECL system using horseradish peroxidase-conjugated anti-rabbit or anti-mouse antibodies.
as §1

ARPE-19 cells = experiment: Cell viability (XTT assay); type: cell-based; settings: Homo sapiens, 48 h, read-out: A. Safety IC50 on ARPE-19 cells
Experimental: ARPE-19 cells were incubated in a 96-well plate with different effectors for 48 hours. Fifty microliters of sodium 3′-[1-phenylaminocarbonyl)-3,4-tetrazolium]-bis(4-methoxy-6-nitro) benzene sulfonic acid hydrate (XTT) reagent was added to each well. The test is based on the cleavage of the yellow tetrazolium salt XTT to form an orange formazan dye by metabolically active cells. This bio-reduction occurs in viable cells only and is associated with NAD(P)H production through glycolysis. Therefore, the amount of formazan dye measured at 490 nm, correlates directly with the number of metabolically active cells reflecting cell proliferation, viability, and cytotoxicity. Each assay was performed in quadruplicate.
as §1

Compound	ocular (retinal) neo-angiogenesis in zebrafish [1]	inhibition at 1 µM (ROS) [%]	inhibition at 5 µM (ROS) [%]	inhibition at 2.5 µM (ERK activation (p-ERK)) [%]	pIC50 (ARPE-19 cells)
CC(C)c1ccc(Cn2nc(Nc3ccccc3)nc2N)cc1 [MCK263, 1-(4-isopropylbenzyl)-N^3-phenyl-1H-1,2,4-triazole-3,5-diamine]	inhibit ocular (retinal) neo-angiogenesis; also recorded: inhibit ocular neoangiogenesis	≥ 50	≥ 50	≥ 50	< 4.60
Nc1nc(Nc2ccccn2)nn1Cc1ccccc1[N+](=O)[O-] [MCK289, 1-(2-nitrobenzyl)-N^3-(pyridin-2-yl)-1H-1,2,4-triazole-3,5-diamine]	–	≥ 50	≥ 50	< 50	< 4.60
Nc1nc(Nc2ccccn2)nn1Cc1ccc([N+](=O)[O-])cc1 [MCK290, 1-(4-nitrobenzyl)-N^3-(pyridin-2-yl)-1H-1,2,4-triazole-3,5-diamine]	–	≥ 50	≥ 50	≥ 50	< 4.60
Nc1nc(Nc2ccccn2)nn1Cc1cccc([N+](=O)[O-])c1 [MCK292, 1-(3-nitrobenzyl)-N^3-(pyridin-2-yl)-1H-1,2,4-triazole-3,5-diamine]	–	< 50	< 50	≥ 50	< 4.60
Nc1nc(Nc2ccccn2)nn1CC(=O)c1cccc([N+](=O)[O-])c1 [MCK295, 2-(5-amino-3-(pyridin-2-ylamino)-1H-1,2,4-triazol-1-yl)-1-(3-nitrophenyl)ethan-1-one]	–	< 50	< 50	≥ 50	< 4.60
Nc1nc(Nc2ccccc2)nn1Cc1ccccc1[N+](=O)[O-] [MCK297, 1-(2-nitrobenzyl)-N^3-phenyl-1H-1,2,4-triazole-3,5-diamine]	–	< 50	< 50	≥ 50	< 4.60
COc1cc(Cn2nc(Nc3ccccc3)nc2N)cc(OC)c1OC [MCK298, N^3-phenyl-1-(3,4,5-trimethoxybenzyl)-1H-1,2,4-triazole-3,5-diamine]	–	< 50	< 50	≥ 50	< 4.60
Nc1nc(Nc2ccccc2)nn1CC(=O)c1ccccc1 [MCK299, 2-(5-amino-3-(phenylamino)-1H-1,2,4-triazol-1-yl)-1-phenylethan-1-one]	–	< 50	< 50	≥ 50	< 4.60
Nc1nc(Nc2ccccc2)n(CCc2ccccc2)n1 [MCK300, 1-phenethyl-N^5-phenyl-1H-1,2,4-triazole-3,5-diamine]	–	< 50	< 50	≥ 50	< 4.60
Nc1nc(Nc2ccccc2)nn1CCc1ccccc1 [MCK301, 1-phenethyl-N^3-phenyl-1H-1,2,4-triazole-3,5-diamine]	–	< 50	< 50	< 50	< 4.60
Nc1nc(Nc2ccccc2)n(Cc2cccc(C(F)(F)F)c2)n1 [MCK338, N^5-phenyl-1-(3-(trifluoromethyl)benzyl)-1H-1,2,4-triazole-3,5-diamine]	–	≥ 50	≥ 50	< 50	< 4.60
Nc1nc(Nc2ccccc2)n(Cc2cccc(Br)c2)n1 [MCK339, 1-(3-bromobenzyl)-N^5-phenyl-1H-1,2,4-triazole-3,5-diamine]	–	< 50	≥ 50	< 50	< 4.60
COc1ccc(Nc2nc(N)n(Cc3cccc(Br)c3)n2)cc1 [MCK340, 1-(3-bromobenzyl)-N^3-(4-methoxyphenyl)-1H-1,2,4-triazole-3,5-diamine]	–	< 50	< 50	< 50	< 4.60
Cc1ccc(Nc2nc(N)nn2Cc2cccc(Br)c2)cc1 [MCK341, 1-(3-bromobenzyl)-N^5-(4-methylphenyl)-1H-1,2,4-triazole-3,5-diamine]	–	≥ 50	≥ 50	< 50	< 4.60
Nc1nc(Nc2ccc(Cl)cc2)n(Cc2cccc(Br)c2)n1 [MCK343, 1-(3-bromobenzyl)-N^5-(4-chlorophenyl)-1H-1,2,4-triazole-3,5-diamine]	–	< 50	≥ 50	≥ 50	< 4.60
Nc1nc(Nc2ccc(Cl)cc2)nn1Cc1cccc(Br)c1 [MCK344, 1-(3-bromobenzyl)-N^3-(4-chlorophenyl)-1H-1,2,4-triazole-3,5-diamine]	inhibit ocular (retinal) neo-angiogenesis; also recorded: inhibit ocular neoangiogenesis	≥ 50	≥ 50	≥ 50	< 4.60
Nc1nc(Nc2ccc(Br)cc2)n(Cc2cccc(Br)c2)n1 [MCK345, 1-(3-bromobenzyl)-N^5-(4-bromophenyl)-1H-1,2,4-triazole-3,5-diamine]	–	≥ 50	≥ 50	≥ 50	< 4.60
Nc1nc(Nc2ccc(Br)cc2)nn1Cc1cccc(Br)c1 [MCK346, 1-(3-bromobenzyl)-N^3-(4-bromophenyl)-1H-1,2,4-triazole-3,5-diamine]	–	≥ 50	≥ 50	≥ 50	< 4.60
COC(=O)c1ccc(Nc2nc(N)nn2Cc2cccc(Br)c2)cc1 [MCK347, methyl-4-((3-amino-1-(3-bromobenzyl)-1H-1,2,4-triazol-5-yl)amino)benzoate]	–	< 50	< 50	≥ 50	< 4.60
COC(=O)c1ccc(Nc2nc(N)n(Cc3cccc(Br)c3)n2)cc1 [MCK348, methyl-4-((5-amino-1-(3-bromobenzyl)-1H-1,2,4-triazol-3-yl)amino)benzoate]	–	≥ 50	≥ 50	≥ 50	< 4.60
CC(C)c1ccc(Cn2nc(Nc3ccc(Cl)c(Cl)c3)nc2N)cc1 [MCK350, N^3-(3,4-dichlorophenyl)-1-(4-isopropylbenzyl)-1H-1,2,4-triazole-3,5-diamine]	–	≥ 50	≥ 50	≥ 50	< 4.60
Nc1nc(Nc2cccnc2)nn1Cc1cccc(Br)c1 [MCK351, 1-(3-bromobenzyl)-N^3-(pyridin-3-yl)-1H-1,2,4-triazole-3,5-diamine]	–	< 50	< 50	≥ 50	< 4.60
